Experimental data as given in patent publication US10758534B2 (Vertex Pharmaceuticals Incorporated, priority 2014, dated 2020).

biological target: T1, F508del (Homo sapiens, UniProt P13569, DEL508-508); test: Protocol 2: FRET membrane potential optical assay (VIPR), identification of correction compounds; format: cell-based; settings: F508del CFTR modulator activity; compounds of Table 1; read-out: EC30
T1 construct: expressed in transfected cells
Method in brief: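 Corrector readout: membrane-potential FRET (CC2-DMPE donor, DiSBAC2(3) acceptor) on VIPR II after Cl⁻-free gluconate bath with 10 μM forskolin and 20 μM genistein. Before this, F508del-expressing NIH3T3 cells were exposed to test compound for 16 h at 37 °C without serum; 27 °C incubation served as temperature-correction control.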

T1 sequence (P13569 with tags, fused parts or gaps DEL508-508): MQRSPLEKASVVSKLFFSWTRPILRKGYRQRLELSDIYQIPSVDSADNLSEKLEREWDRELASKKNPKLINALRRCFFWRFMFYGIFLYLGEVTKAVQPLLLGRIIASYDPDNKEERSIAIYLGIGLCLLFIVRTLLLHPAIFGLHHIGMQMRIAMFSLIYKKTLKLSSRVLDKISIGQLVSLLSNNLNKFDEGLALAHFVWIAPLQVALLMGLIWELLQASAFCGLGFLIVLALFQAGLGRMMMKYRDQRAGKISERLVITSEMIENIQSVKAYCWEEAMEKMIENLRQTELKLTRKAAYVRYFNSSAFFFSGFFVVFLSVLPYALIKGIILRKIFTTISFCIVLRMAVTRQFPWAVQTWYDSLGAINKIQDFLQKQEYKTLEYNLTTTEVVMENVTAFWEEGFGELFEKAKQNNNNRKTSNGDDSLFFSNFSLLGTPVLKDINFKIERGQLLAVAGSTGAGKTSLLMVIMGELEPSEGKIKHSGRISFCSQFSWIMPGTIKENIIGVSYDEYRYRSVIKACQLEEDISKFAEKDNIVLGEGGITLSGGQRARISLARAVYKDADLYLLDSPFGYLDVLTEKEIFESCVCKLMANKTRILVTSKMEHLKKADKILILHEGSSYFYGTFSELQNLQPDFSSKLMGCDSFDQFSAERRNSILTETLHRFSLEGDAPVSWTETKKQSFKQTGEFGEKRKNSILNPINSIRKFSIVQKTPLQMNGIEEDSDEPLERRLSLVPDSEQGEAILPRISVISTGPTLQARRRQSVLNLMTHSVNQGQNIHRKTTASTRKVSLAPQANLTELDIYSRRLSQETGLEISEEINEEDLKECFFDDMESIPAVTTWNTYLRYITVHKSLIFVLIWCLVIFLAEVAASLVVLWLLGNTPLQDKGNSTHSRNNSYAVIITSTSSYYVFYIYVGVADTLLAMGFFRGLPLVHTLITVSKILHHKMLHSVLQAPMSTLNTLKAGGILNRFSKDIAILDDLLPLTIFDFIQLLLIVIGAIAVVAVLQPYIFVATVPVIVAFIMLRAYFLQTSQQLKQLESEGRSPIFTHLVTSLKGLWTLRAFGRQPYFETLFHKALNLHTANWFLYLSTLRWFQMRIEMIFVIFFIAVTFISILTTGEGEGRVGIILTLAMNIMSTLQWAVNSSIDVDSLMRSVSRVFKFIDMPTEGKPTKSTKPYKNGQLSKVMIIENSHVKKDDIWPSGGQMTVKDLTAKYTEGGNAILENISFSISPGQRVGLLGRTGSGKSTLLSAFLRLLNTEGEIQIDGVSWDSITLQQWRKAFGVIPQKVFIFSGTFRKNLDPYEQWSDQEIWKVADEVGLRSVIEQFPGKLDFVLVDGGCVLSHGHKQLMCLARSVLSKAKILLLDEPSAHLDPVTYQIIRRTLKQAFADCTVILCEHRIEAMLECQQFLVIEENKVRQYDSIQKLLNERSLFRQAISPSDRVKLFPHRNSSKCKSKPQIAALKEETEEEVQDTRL

Row | EC30 | SMILES
1 | < 3000 nM | CC1CN(c2ncccc2C(=O)NS(=O)(=O)c2cccc(OCc3cccc(-n4cccc4)c3)n2)C(C)(C)C1 (stereo not drawn) [Compound 2600, N—[[6-[(3-pyrrol-1-ylphenyl)methoxy]-2-pyridyl]sulfonyl]-2-(2,2,4-trimethylpyrrolidin-1-yl)pyridine-3-carboxamide]
2 | 3000 to 10000 nM | CC1CN(c2ncccc2C(=O)NS(=O)(=O)c2cccc(N3CCN(C4CCCCC4)CC3)n2)C(C)(C)C1 (stereo not drawn) [Compound 2601, N—[[6-(4-cyclohexylpiperazin-1-yl)-2-pyridyl]sulfonyl]-2-(2,2,4-trimethylpyrrolidin-1-yl)pyridine-3-carboxamide]
3 | 3000 to 10000 nM | CCCOCCNc1cccc(S(=O)(=O)NC(=O)c2cccnc2N2CC(C)CC2(C)C)n1 (stereo not drawn) [Compound 2602, N—[[6-(2-propoxyethylamino)-2-pyridyl]sulfonyl]-2-(2,2,4-trimethylpyrrolidin-1-yl)pyridine-3-carboxamide]
4 | < 3000 nM | C[C@@H]1CN(c2nc(-n3cc(OCC(C)(C)C)cn3)ccc2C(=O)NS(=O)(=O)c2cccc(N)n2)C(C)(C)C1 [Compound 2603, N-[(6-amino-2-pyridyl)sulfonyl]-6-[4-(2,2-dimethylpropoxy)pyrazol-1-yl]-2-[(4S)-2,2,4-trimethylpyrrolidin-1-yl]pyridine-3-carboxamide]
5 | 3000 to 10000 nM | Cc1ccc(-c2ccc(C(=O)NS(=O)(=O)N3CC[C@H](N)C3)c(N3C[C@@H](C)CC3(C)C)n2)cc1C [Compound 2605, N-[(3S)-3-aminopyrrolidin-1-yl]sulfonyl-6-(3,4-dimethylphenyl)-2-[(4S)-2,2,4-trimethylpyrrolidin-1-yl]pyridine-3-carboxamide]
6 | < 3000 nM | COc1ccc(F)c(-c2ccc(C(=O)NS(=O)(=O)c3ccc[nH]c3=O)c(N3C[C@@H](C)CC3(C)C)n2)c1 [Compound 2606, 6-(2-fluoro-5-methoxy-phenyl)-N-[(2-oxo-1H-pyridin-3-yl)sulfonyl]-2-[(4S)-2,2,4-trimethylpyrrolidin-1-yl]pyridine-3-carboxamide]
7 | < 3000 nM | COc1cc(C)c(-c2ccc(C(=O)NS(=O)(=O)c3cccnc3N)c(N3C[C@@H](C)CC3(C)C)n2)c(C)c1 [Compound 2607, N-[(2-amino-3-pyridyl)sulfonyl]-6-(4-methoxy-2,6-dimethyl-phenyl)-2-[(4S)-2,2,4-trimethylpyrrolidin-1-yl]pyridine-3-carboxamide]
8 | < 3000 nM | CC(C)Oc1c(F)cc(-c2ccc(C(=O)NS(=O)(=O)c3cccc(N)n3)c(N3C[C@@H](C)CC3(C)C)n2)cc1F [Compound 2608, N-[(6-amino-2-pyridyl)sulfonyl]-6-(3,5-difluoro-4-isopropoxy-phenyl)-2-[(4S)-2,2,4-trimethylpyrrolidin-1-yl]pyridine-3-carboxamide]
9 | < 3000 nM | CC1CN(c2ncccc2C(=O)NS(=O)(=O)c2cccc(N3CCCC3C)n2)C(C)(C)C1 (stereo not drawn) [Compound 2609, N—[[6-(2-methylpyrrolidin-1-yl)-2-pyridyl]sulfonyl]-2-(2,2,4-trimethylpyrrolidin-1-yl)pyridine-3-carboxamide]
10 | < 3000 nM | C#Cc1ccc(COc2cccc(S(=O)(=O)NC(=O)c3cccnc3N3CC(C)CC3(C)C)n2)cc1 (stereo not drawn) [Compound 2610, N—[[6-[(4-ethynylphenyl)methoxy]-2-pyridyl]sulfonyl]-2-(2,2,4-trimethylpyrrolidin-1-yl)pyridine-3-carboxamide]
11 | < 3000 nM | CC1CN(c2ncccc2C(=O)NS(=O)(=O)c2cccc(Oc3ccc4ccccc4c3)n2)C(C)(C)C1 (stereo not drawn) [Compound 2611, N—[[6-(2-naphthyloxy)-2-pyridyl]sulfonyl]-2-(2,2,4-trimethylpyrrolidin-1-yl)pyridine-3-carboxamide]
12 | 3000 to 10000 nM | CCC(C)(C)C(=O)N1CCC=C(c2ccc(C(=O)NS(=O)(=O)c3cccc(N)n3)c(N3C[C@@H](C)CC3(C)C)n2)C1 [Compound 2612, N-[(6-amino-2-pyridyl)sulfonyl]-6-[1-(2,2-dimethylbutanoyl)-3,6-dihydro-2H-pyridin-5-yl]-2-[(4S)-2,2,4-trimethylpyrrolidin-1-yl]pyridine-3-carboxamide]
13 | < 3000 nM | Cc1ccc(-c2ccc(C(=O)NS(=O)(=O)c3cccnc3N)c(N3C[C@@H](C)CC3(C)C)n2)c(F)c1 [Compound 2613, N-[(2-amino-3-pyridyl)sulfonyl]-6-(2-fluoro-4-methyl-phenyl)-2-[(4S)-2,2,4-trimethylpyrrolidin-1-yl]pyridine-3-carboxamide]
14 | 3000 to 10000 nM | COc1cc(-c2ccc(C(=O)NS(=O)(=O)c3cccnc3N)c(N3C[C@@H](C)CC3(C)C)n2)ccc1O [Compound 2614, N-[(2-amino-3-pyridyl)sulfonyl]-6-(4-hydroxy-3-methoxy-phenyl)-2-[(4S)-2,2,4-trimethylpyrrolidin-1-yl]pyridine-3-carboxamide]
15 | < 3000 nM | Cc1c(F)cccc1-c1ccc(C(=O)NS(=O)(=O)c2cccc(N)n2)c(N2C[C@@H](C)CC2(C)C)n1 [Compound 2616, N-[(6-amino-2-pyridyl)sulfonyl]-6-(3-fluoro-2-methyl-phenyl)-2-[(4S)-2,2,4-trimethylpyrrolidin-1-yl]pyridine-3-carboxamide]
16 | 3000 to 10000 nM | CCOc1cccc(S(=O)(=O)NC(=O)c2cccnc2N2CC(C)CC2(C)C)n1 (stereo not drawn) [Compound 2617, N-[(6-ethoxy-2-pyridyl)sulfonyl]-2-(2,2,4-trimethylpyrrolidin-1-yl)pyridine-3-carboxamide]
17 | < 3000 nM | CC1CN(c2ncccc2C(=O)NS(=O)(=O)c2cccc(OCc3ccc(C(F)(F)F)cc3)n2)C(C)(C)C1 (stereo not drawn) [Compound 2618, N—[[6-[[4-(trifluoromethyl)phenyl]methoxy]-2-pyridyl]sulfonyl]-2-(2,2,4-trimethylpyrrolidin-1-yl)pyridine-3-carboxamide]
18 | < 3000 nM | CC1CN(c2ncccc2C(=O)NS(=O)(=O)c2cccc(OCc3ccccc3)n2)C(C)(C)C1 (stereo not drawn) [Compound 2619, N-[(6-benzyloxy-2-pyridyl)sulfonyl]-2-(2,2,4-trimethylpyrrolidin-1-yl)pyridine-3-carboxamide]
19 | 3000 to 10000 nM | CCCCN1CCCN(c2cccc(S(=O)(=O)NC(=O)c3cccnc3N3CC(C)CC3(C)C)n2)CC1 (stereo not drawn) [Compound 2620, N—[[6-(4-butyl-1,4-diazepan-1-yl)-2-pyridyl]sulfonyl]-2-(2,2,4-trimethylpyrrolidin-1-yl)pyridine-3-carboxamide]
20 | 3000 to 10000 nM | CC1CN(c2ncccc2C(=O)NS(=O)(=O)c2cccc(N3CCN(c4ncccn4)CC3)n2)C(C)(C)C1 (stereo not drawn) [Compound 2621, N—[[6-(4-pyrimidin-2-ylpiperazin-1-yl)-2-pyridyl]sulfonyl]-2-(2,2,4-trimethylpyrrolidin-1-yl)pyridine-3-carboxamide]
21 | < 3000 nM | CC(C)OC(=O)N1CCC=C(c2ccc(C(=O)NS(=O)(=O)c3cccc(N)n3)c(N3C[C@@H](C)CC3(C)C)n2)C1 [Compound 2622, isopropyl 5-[5-[(6-amino-2-pyridyl)sulfonylcarbamoyl]-6-[(4S)-2,2,4-trimethylpyrrolidin-1-yl]-2-pyridyl]-3,6-dihydro-2H-pyridine-1-carboxylate]
22 | 3000 to 10000 nM | CC(C)Oc1ccccc1-c1ccc(C(=O)NS(=O)(=O)c2cccnc2N)c(N2C[C@@H](C)CC2(C)C)n1 [Compound 2623, N-[(2-amino-3-pyridyl)sulfonyl]-6-(2-isopropoxyphenyl)-2-[(4S)-2,2,4-trimethylpyrrolidin-1-yl]pyridine-3-carboxamide]
23 | 3000 to 10000 nM | CC(C)OC(=O)Nc1cccc(S(=O)(=O)NC(=O)c2ccc(C3=CCCNC3)nc2N2C[C@@H](C)CC2(C)C)n1 [Compound 2624, isopropyl N—[6-[[6-(1,2,3,6-tetrahydropyridin-5-yl)-2-[(4S)-2,2,4-trimethylpyrrolidin-1-yl]pyridine-3-carbonyl]sulfamoyl]-2-pyridyl]carbamate]
24 | < 3000 nM | CC1CN(c2ncccc2C(=O)NS(=O)(=O)c2cccc(OCCc3ccccc3F)n2)C(C)(C)C1 (stereo not drawn) [Compound 2625, N—[[6-[2-(2-fluorophenyl)ethoxy]-2-pyridyl]sulfonyl]-2-(2,2,4-trimethylpyrrolidin-1-yl)pyridine-3-carboxamide]
25 | < 3000 nM | Cc1cc(C)cc(-c2ccc(C(=O)NS(=O)(=O)c3ccc[nH]c3=O)c(N3C[C@@H](C)CC3(C)C)n2)c1 [Compound 2626, 6-(3,5-dimethylphenyl)-N-[(2-oxo-1H-pyridin-3-yl)sulfonyl]-2-[(4S)-2,2,4-trimethylpyrrolidin-1-yl]pyridine-3-carboxamide]
26 | < 3000 nM | CC1CN(c2ncccc2C(=O)NS(=O)(=O)c2cccc(OCC3OCc4ccccc4O3)n2)C(C)(C)C1 (stereo not drawn) [Compound 2627, N—[[6-(4H-1,3-benzodioxin-2-ylmethoxy)-2-pyridyl]sulfonyl]-2-(2,2,4-trimethylpyrrolidin-1-yl)pyridine-3-carboxamide]
27 | < 3000 nM | COc1ncc(-c2ccc(C(=O)NS(=O)(=O)c3cccnc3N)c(N3C[C@@H](C)CC3(C)C)n2)cc1F [Compound 2628, N-[(2-amino-3-pyridyl)sulfonyl]-6-(5-fluoro-6-methoxy-3-pyridyl)-2-[(4S)-2,2,4-trimethylpyrrolidin-1-yl]pyridine-3-carboxamide]
28 | < 3000 nM | CC1CN(c2ncccc2C(=O)NS(=O)(=O)c2cccc(OCCC3CCCC3)n2)C(C)(C)C1 (stereo not drawn) [Compound 2630, N—[[6-(2-cyclopentylethoxy)-2-pyridyl]sulfonyl]-2-(2,2,4-trimethylpyrrolidin-1-yl)pyridine-3-carboxamide]

Row | SMILES | EC30
29 | CC(C)COc1ccccc1-c1ccc(C(=O)NS(=O)(=O)c2ccc[nH]c2=O)c(N2C[C@@H](C)CC2(C)C)n1 [Compound 2629, 6-(2-isobutoxyphenyl)-N-[(2-oxo-1H-pyridin-3-yl)sulfonyl]-2-[(4S)-2,2,4-trimethylpyrrolidin-1-yl]pyridine-3-carboxamide] | < 3000 nM
30 | CC(C)COc1cc(F)cc(-c2ccc(C(=O)NS(=O)(=O)c3cccc(N)n3)c(N3CC(F)(F)CC3(C)C)n2)c1 [Compound 2631, N-[(6-amino-2-pyridyl)sulfonyl]-2-(4,4-difluoro-2,2-dimethyl-pyrrolidin-1-yl)-6-(3-fluoro-5-isobutoxy-phenyl)pyridine-3-carboxamide] | < 3000 nM
